This is an account of results in paper PMC12409542, “Synthesis and Computational Evaluation of N‑Acetyl-Derived Schiff Bases Incorporating 1,2,4-Triazoles for Dual Inhibition of Prostate Cancer Cells and Carbonic Anhydrases” (ACS Omega, 2025).

The target in one test is hCA II (Homo sapiens, UniProt P00918). Description: hCA II inhibition, spectrophotometric esterase method (p-nitrophenyl acetate). Particulars: p-nitrophenyl acetate substrate, 348 nm; for Ki: read-out: K i (μM) hCA II. It is filed as biochemical. On the procedure: (§1) In this study, Sepharose-4B L-Tyrosine sulfanilamide affinity chromatography was employed to purify both CA isozymes in a single phase. A previous process was used to manufacture the column chemical material for affinity chromatography containing Sepharose-4B-L-Tyrosine-Sulfanilamide. As previously shown, the protein molecules’ flow in the column eluates was measured spectrophotometrically at 280 nm. […] The substrate used, p-nitrophenyl acetate, was enzymatically converted by both isoenzymes into p-nitrophenolate ions.

The target of another test is hCA I (Homo sapiens, UniProt P00915). Description: hCA I inhibition, spectrophotometric esterase method (p-nitrophenyl acetate). It is filed as biochemical. Particulars: p-nitrophenyl acetate substrate, 348 nm; for Ki: read-out: K i (μM) hCA I. On the procedure: as §1
hCA I, sequence (P00915 whole entry): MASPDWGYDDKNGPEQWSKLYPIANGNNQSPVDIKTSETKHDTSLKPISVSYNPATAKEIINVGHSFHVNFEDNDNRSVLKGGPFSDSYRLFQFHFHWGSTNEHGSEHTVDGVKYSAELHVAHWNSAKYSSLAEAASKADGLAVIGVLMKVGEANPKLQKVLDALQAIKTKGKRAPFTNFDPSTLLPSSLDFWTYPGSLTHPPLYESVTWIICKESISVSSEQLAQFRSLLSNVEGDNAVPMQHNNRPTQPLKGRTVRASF
Another test concerns DU145 cells. Description: Cell viability assay (CVDK-8), DU145 cells. The test is classed as cell-based, human. The note with it: for effect on viability of cancer cells (in words): DU145, 1, 10 and 100 μM, 24 h; for IC50: Homo sapiens, DU-145, viability of DU145 cells, 24 h treatment, CVDK-8; for selectivity indices (SI) PNT1a IC50/DU145 IC50: ratio PNT1a IC50/DU145 IC50, 24 h. On the procedure: (§2) In this research, the inhibitory effects of the compounds under investigation on cell viability were assessed using two distinct human cell lines: specifically, the DU145 cell line, representative of prostate cancer, and the PNT1a cell line, which serves as a model for normal human prostate epithelial cells. Cells were routinely cultured in RPMI-1640 medium supplemented with 10% fetal bovine serum, 1% penicillin/streptomycin (Gibco), and 1% L-glutamine. All cells were maintained in a 5% CO2 humidified incubator at 37 °C.
(§3) Effects of all compounds synthesized in this study on the viability of PNT1a and DU145 cells were analyzed using the Cell Viability Detection Kit-8 (CVDK-8, Ecotech Biotechnology, Erzurum, Turkey). In brief, cells were seeded at a concentration of 3 × 10^3 cells per well within 100 μL medium in 96 well plates. Then, cells were treated with compounds at concentrations of […] for 24 h. After treatment with the test compounds, the medium was removed and fresh RPMI-1640 medium containing 1/10 CVDK- 8 reagent was added to each well, and plates were incubated for 3 h at 37 °C protected from light. After the incubation period, optical densities were measured using Epoch spectrophotometer at 450 nm. For cell culture, experiments were performed in triplicate, and data were analyzed by t tests.

The next test relates to PNT1a cells. Description: Cell viability assay (CVDK-8), PNT1a cells. The test is classed as cell-based. The note with it: Homo sapiens, viability of PNT1a normal prostate epithelial cells, 24 h treatment. On the procedure:
as §2, §3

Take `CC(=O)n1nc(C)n(N=Cc2cccc(OS(=O)(=O)c3ccc(C)cc3)c2)c1=O` [6a, 3-[((1-Acetyl-3-methyl-5-oxo-1,5-dihydro-4H-1,2,4-triazol-4-yl)-imino)-methyl]-phenyl-4-methylbenzenesulfonate]: the half-maximal inhibitory concentration (IC50) is 15.3 µM at hCA II, 11.4 µM at hCA I, 73.2 ± 11.5 µM in the test on DU145 cells and over 100 µM in the test with PNT1a cells. For the same molecule, the Ki at hCA II was determined as 19.7 ± 2.48 µM; at hCA I it was 14 ± 1.15 µM. Moreover, the “effect on viability of cancer cells (in words)” value (shortened to “effect on viability”) with DU145 cells is “decreased the viability of cancer cells in a dose-dependent manner”. In the test on DU145 cells, the “selectivity indices (SI) PNT1a IC50/DU145 IC50” value (shortened to “selectivity indices”) was determined as 6.74.
Consider `CCc1nn(C(C)=O)c(=O)n1N=Cc1cccc(OS(=O)(=O)c2ccc(C)cc2)c1` [6b, 3-[((1-Acetyl-3-ethyl-5-oxo-1,5-dihydro-4H-1,2,4-triazol-4-yl)-imino)-methyl]-phenyl-4-methylbenzenesulfonate], for which, on hCA II, 18.4 µM corresponded to half-maximal inhibition (IC50) and the Ki came to 21.9 ± 3.48 µM. In addition, at hCA I, the 50% inhibitory concentration (IC50) was found to be 13.7 µM and the Ki stood at 16.7 ± 2.14 µM.
As to `CC(=O)n1nc(Cc2ccccc2)n(N=Cc2cccc(OS(=O)(=O)c3ccc(C)cc3)c2)c1=O` [6c, 3-[((1-Acetyl-3-benzyl-5-oxo-1,5-dihydro-4H-1,2,4-triazol-4-yl)-imino)-methyl]-phenyl-4-methylbenzenesulfonate], at hCA II, half-maximal inhibition (IC50) was put at 14.5 µM and the Ki is 17.3 ± 2.41 µM. Further, on hCA I, the midpoint of inhibition, the IC50, lay at 10.2 µM and the Ki came to 13.1 ± 1.02 µM. Besides, in the test on DU145 cells, the “effect on viability” value was “did not suppress the viability of cancer cells in low concentrations”, the IC50 was over 100 µM and the “selectivity indices” value is given as 1.22. In addition, the 50% inhibitory concentration (IC50) in the test with PNT1a cells was over 100 µM.
For `CC(=O)n1nc(Cc2ccc(C)cc2)n(N=Cc2cccc(OS(=O)(=O)c3ccc(C)cc3)c2)c1=O` [6d, 3-[((1-Acetyl-3-p-methylbenzyl-5-oxo-1,5-dihydro-4H-1,2,4-triazol-4-yl)-imino)-methyl]-phenyl-4-methylbenzenesulfonate], the IC50 against hCA II was 10.6 µM; at hCA I, 7.12 µM; in the test with DU145 cells, 49.8 ± 11.1 µM; in the test on PNT1a cells, over 100 µM. For the same molecule, the Ki was found to be 11.7 ± 1.01 µM at hCA II and 9.26 ± 0.88 µM at hCA I. In addition, the “effect on viability” value in the test on DU145 cells is “did not suppress the viability of cancer cells in low concentrations”. Also, the “selectivity indices” value with DU145 cells is given as 2.28.
Consider `CC(=O)n1nc(Cc2ccc(Cl)cc2)n(N=Cc2cccc(OS(=O)(=O)c3ccc(C)cc3)c2)c1=O` [6e, 3-[((1-Acetyl-3-p-chlorobenzyl-5-oxo-1,5-dihydro-4H-1,2,4-triazol-4-yl)-imino)-methyl]-phenyl-4-methylbenzenesulfonate], for which, at hCA II, it took 16.8 µM to reach half-maximal inhibition (IC50) and the Ki is 18.1 ± 2.47 µM. Moreover, on hCA I, the half-inhibitory concentration (IC50) came to 12.3 µM and the Ki was found to be 14.2 ± 1.1 µM. In the test on DU145 cells, the “effect on viability” value is listed as “decreased the viability of cancer cells in a dose-dependent manner”, the IC50 was over 100 µM and the “selectivity indices” value is reported as 5.23. This molecule also came in with an IC50 in the test on PNT1a cells of over 100 µM.

As a reminder, the IC50 is the concentration that gives 50% inhibition. The low end stands for inhibition by little substance, the high end for a need for much substance.
